Test results published in US10611779B2, “Fused bicyclic heterocycle derivatives as pesticides” (Bayer CropScience Aktiengesellschaft, priority 2016, dated 2020).

Experiments:
[1] = test system: Myzus persicae; test: Myzus persicae - spray test; format: in vivo; settings: application rate 100 g/ha; Chinese cabbage leaf discs, all stages; after 5 days
Description: Myzus persicae—Spray Test [table] To produce a suitable active ingredient formulation, 1 part by weight of active ingredient is dissolved with the specified parts by weight of solvent and made up to the desired concentration with water containing an emulsifier concentration of 1000 ppm. To produce further test concentrations, the formulation is diluted with emulsifier-containing water. Discs of Chinese cabbage leaves (Brassica pekinensis) infested by all stages of the green peach aphid (Myzus persicae) are sprayed with an active ingredient formulation of the desired concentration. After 5 days, the efficacy in % is determined. 100% means that all the aphids have been killed; 0% means that no aphids have been killed.

[2] = test system: Myzus persicae; test: Myzus persicae - oral test; format: in vivo; settings: microtitre plate, after 5 days
Description: Myzus persicae—Oral Test [table] To produce a suitable active ingredient formulation, 1 part by weight of active ingredient is dissolved with the stated parts by weight of solvent and made up to the desired concentration with water. 50 μl of the active ingredient preparation are transferred into microtitre plates and made up to a final volume of 200 μl with 150 μl of IPL41 insect medium (33%+15% sugar). Subsequently, the plates are sealed with parafilm, which a mixed population of green peach aphids (Myzus persicae) within a second microtitre plate is able to puncture and imbibe the solution. After 5 days, the efficacy in % is determined. 100% means that all the aphids have been killed; 0% means that no aphids have been killed.

[3] = test system: Phaedon cochleariae; test: Phaedon cochleariae - spray test; format: in vivo; settings: application rate 100 g/ha; Chinese cabbage leaf discs; after 7 days
Description: Phaedon cochleariae—Spray Test
(§1) To produce a suitable active ingredient formulation, 1 part by weight of active ingredient is dissolved with the specified parts by weight of solvent and made up to the desired concentration with water containing an emulsifier concentration of 1000 ppm. To produce further test concentrations, the formulation is diluted with emulsifier-containing water.
Discs of Chinese cabbage leaves (Brassica pekinensis) are sprayed with an active ingredient formulation of the desired concentration and, after drying, populated with larvae of the mustard beetle (Phaedon cochleariae).
After 7 days, the efficacy in % is determined. 100% means that all the beetle larvae have been killed; 0% means that no beetle larvae have been killed.

[4] = test system: Spodoptera frugiperda; test: Spodoptera frugiperda - spray test; format: in vivo; settings: application rate 100 g/ha; maize leaf discs; after 7 days
Description: Spodoptera frugiperda—Spray Test [table] To produce a suitable active ingredient formulation, 1 part by weight of active ingredient is dissolved with the specified parts by weight of solvent and made up to the desired concentration with water containing an emulsifier concentration of 1000 ppm. To produce further test concentrations, the formulation is diluted with emulsifier-containing water. Leaf discs of maize (Zea mays) are sprayed with an active ingredient formulation of the desired concentration and, after drying, populated with caterpillars of the armyworm (Spodoptera frugiperda). After 7 days, the efficacy in % is determined. 100% means that all the caterpillars have been killed; 0% means that no caterpillar has been killed.

[5] = log P (neutral) by HPLC on reversed-phase column (EEC Directive 79/831 Annex V.A8); format: physicochemical; settings: reversed-phase C18 HPLC column, reversed-phase C 18, 55° C., neutral range pH 7.8
Description: The log P values are measured according to EEC Directive 79/831 Annex V.A8 by HPLC (high-performance liquid chromatography) on a reversed-phase column (C 18). Temperature: 55° C. The LC-MS determination in the neutral range is effected at pH 7.8 with 0.001 molar aqueous ammonium hydrogencarbonate solution and acetonitrile as eluents; linear gradient from 10% acetonitrile to 95% acetonitrile. Called log P (neutral) in the table. Calibration is effected using unbranched alkan-2-ones (having 3 to 16 carbon atoms) with known log P values (log P values determined on the basis of the retention times by linear interpolation between two successive alkanones).

[6] = test system: Ctenocephalides felis; test: Ctenocephalides felis - in vitro contact tests with adult cat fleas; format: in vivo; settings: application rate 5 μg/cm^2 (=500 g/ha), coated glass tube, after 48 h
Description: Ctenocephalides felis—In Vitro Contact Tests with Adult Cat Fleas For the coating of the test tubes, 9 mg of active ingredient are first dissolved in 1 ml of acetone p.a. and then diluted to the desired concentration with acetone p.a. 250 μl of the solution are distributed homogeneously on the inner walls and the base of a 25 ml glass tube by turning and rocking on an orbital shaker (rocking rotation at 30 rpm for 2 h). With 900 ppm of active ingredient solution and internal surface area 44.7 cm^2, given homogeneous distribution, an area-based dose of 5 μg/cm^2 is achieved. After the solvent has evaporated off, the tubes are populated with 5-10 adult cat fleas (Ctenocephalides felis), sealed with a perforated plastic lid and incubated in a horizontal position at room temperature and ambient humidity. After 48 h, efficacy is determined. To this end, the tubes are stood upright and the fleas are knocked to the base of the tube. Fleas which remain motionless at the base or move in an uncoordinated manner are considered to be dead or moribund. […] 100% efficacy means that all the fleas were dead or moribund. 0% efficacy means that no fleas were harmed.

[7] = test system: Ctenocephalides felis; test: Ctenocephalides felis - oral test; format: in vivo; settings: application rate 100 ppm; in citrated cattle blood; after 2 days
Description: Ctenocephalides felis—Oral Test Solvent: dimethyl sulfoxide To produce a suitable active ingredient formulation, 10 mg of active ingredient are mixed with 0.5 ml of dimethyl sulfoxide. Dilution with citrated cattle blood gives the desired concentration. About 20 unfed adult cat fleas (Ctenocephalides felis) are placed into a chamber which is closed at the top and bottom with gauze. A metal cylinder whose bottom end is closed with parafilm is placed onto the chamber. The cylinder contains the blood/active ingredient formulation, which can be imbibed by the fleas through the parafilm membrane. After 2 days, the kill in % is determined. 100% means that all of the fleas have been killed; 0% means that none of the fleas have been killed.

[8] = test system: Lucilia cuprina; test: Lucilia cuprina test; format: in vivo; settings: application rate 100 ppm; minced horsemeat; after 2 days
Description: Lucilia cuprina Test Solvent: dimethyl sulfoxide To produce a suitable active ingredient formulation, 10 mg of active ingredient are mixed with 0.5 ml of dimethyl sulfoxide, and the concentrate is diluted with water to the desired concentration. About 20 L1 larvae of the Australian sheep blowfly (Lucilia cuprina) are transferred into a test vessel containing minced horsemeat and the active ingredient formulation of the desired concentration. After 2 days, the kill in % is determined. 100% means that all the larvae have been killed; 0% means that no larvae have been killed.

[9] = test system: Musca domestica; test: Musca domestica test; format: in vivo; settings: application rate 100 ppm; sponge with sugar solution; after 2 days
Description: Musca domestica Test Solvent: dimethyl sulfoxide To produce a suitable active ingredient formulation, 10 mg of active ingredient are mixed with 0.5 ml of dimethyl sulfoxide, and the concentrate is diluted with water to the desired concentration. Vessels containing a sponge treated with sugar solution and the active ingredient formulation of the desired concentration are populated with 10 adult houseflies (Musca domestica). After 2 days, the kill in % is determined. 100% means that all of the flies have been killed; 0% means that none of the flies have been killed.

[10] = test system: Boophilus microplus; test: Boophilus microplus - injection test; format: in vivo; settings: application rate 20 μg/animal; injection into engorged adult female ticks; after 7 days
Description: Boophilus microplus—Injection Test Solvent: dimethyl sulfoxide To produce a suitable active ingredient formulation, 10 mg of active ingredient are mixed with 0.5 ml of solvent and the concentrate is diluted to the desired concentration with solvent. 1 μl of the active ingredient solution is injected into the abdomen of 5 engorged adult female cattle ticks (Boophilus microplus). The animals are transferred into dishes and kept in a climate-controlled room. Efficacy is assessed after 7 days by laying of fertile eggs. Eggs which are not visibly fertile are stored in a climate-controlled cabinet until the larvae hatch after about 42 days. An efficacy of 100% means that none of the ticks has laid any fertile eggs; 0% means that all the eggs are fertile.

[11] = test system: Tetranychus urticae; test: Tetranychus urticae - spray test, OP-resistant; format: in vivo; settings: application rate 20 g/ha; bean leaf discs, all stages; after 6 days
Description: Tetranychus urticae—Spray Test, OP-Resistant
as §1
Discs of bean leaves (Phaseolus vulgaris) infested with all stages of the greenhouse red spider mite (Tetranychus urticae) are sprayed with an active ingredient formulation of the desired concentration.
After 6 days, the efficacy in % is determined. 100% means that all the spider mites have been killed; 0% means that no spider mites have been killed.

chromatographic logP [5]	Compound	efficacy (aphids killed) [1] [%]	efficacy (aphids killed) ([2]; application rate 4 ppm) [%]	efficacy (beetle larvae killed) [3] [%]	efficacy (caterpillars killed) [4] [%]	efficacy (aphids killed) ([2]; application rate 20 ppm) [%]	efficacy (fleas dead or moribund) [6] [%]	efficacy (kill of fleas) [7] [%]	efficacy (kill of L1 larvae) [8] [%]	efficacy (kill of adult houseflies) [9] [%]	efficacy (no laying of fertile eggs) [10] [%]	efficacy (spider mites killed) [11] [%]
2.26	CCS(=O)(=O)c1c(-c2nc3cc(C(F)(F)F)ncc3n2C)nn2ccccc12 [Example I-1, 2-(3-Ethylsulfonylpyrazolo[1,5-a]pyridin-2-yl)-3-methyl-6-(trifluoromethyl)imidazo[4,5-c]pyridine]	100	100	–	–	100	100	100	100	–	–	–
2.86	Cn1c(-c2nn3ccccc3c2Br)nc2cc(C(F)(F)F)ncc21 [2-(3-Bromopyrazolo[1,5-a]pyridin-2-yl)-3-methyl-6-(trifluoromethyl)imidazo[4,5-c]pyridine]	–	–	–	–	–	–	–	–	–	–	–
2	CCS(=O)(=O)c1c(-c2nc3cc(C(F)(F)F)ncc3n2C)nn2c(C)cc(C)nc12 [Example I-3, 3-Ethylsulfonyl-5,7-dimethyl-2-[3-methyl-6-(trifluoromethyl)imidazo[4,5-c]pyridin-2-yl]-pyrazolo[1,5-a]pyrimidine]	100	100	–	–	100	–	100	97	–	100	–
1.58	CCS(=O)(=O)c1c(-c2nc3cc(C(F)(F)F)ncc3n2C)nn2cccnc12 [Example I-2, 2-(3-Ethylsulfonylpyrazolo[1,5-a]pyrimidin-2-yl)-3-methyl-6-(trifluoromethyl)imidazo[4,5-c]-pyridine]	90	100	–	–	100	–	–	–	–	–	90

The remaining lines, values behind:

Compound	chromatographic logP [5]	efficacy (aphids killed) [1] [%]	efficacy (aphids killed) ([2]; application rate 4 ppm) [%]	efficacy (beetle larvae killed) [3] [%]	efficacy (caterpillars killed) [4] [%]	efficacy (aphids killed) ([2]; application rate 20 ppm) [%]	efficacy (fleas dead or moribund) [6] [%]	efficacy (kill of fleas) [7] [%]	efficacy (kill of L1 larvae) [8] [%]	efficacy (kill of adult houseflies) [9] [%]	efficacy (no laying of fertile eggs) [10] [%]	efficacy (spider mites killed) [11] [%]
CCS(=O)(=O)c1c(-c2nc3cc(C(F)(F)F)cnc3n2C)nn2cc(Cl)ccc12 [Example I-6]	–	90	100	100	100	–	–	–	–	–	–	–
CCS(=O)(=O)c1c(-c2nc3cc(C(F)(F)F)cnc3n2C)nn2ccccc12 [Example I-4]	–	90	100	100	100	–	100	–	100	90	–	–
CCS(=O)(=O)c1c(-c2nc3cc(C(F)(F)F)ncc3n2C)nn2cc(Cl)ccc12 [Example I-5]	–	–	100	100	100	–	–	–	–	–	–	–
